Experimental data: patent US20260125371A1, “METHOD FOR INHIBITING CLOSTRIDIOIDES DIFFICILE SPORE GERMINATION” (UNIVERSITY OF NOTRE DAME DU LAC, priority 2022, published 2026)
In brackets after ≈: the same amount, converted by molar mass. Where two headings read alike, the source gives them in different places.

Columns and labels:
[1] = test system: C. difficile ATCC 43255; assay: Determination of minimal-inhibitory concentrations (microdilution), C. difficile ATCC 43255; type: cell-based, Clostridioides difficile; settings: Clostridioides difficile
[2] = test system: S. aureus; assay: MIC against S. aureus strains; type: cell-based; settings: Staphylococcus aureus, ATCC29213, 24 h, S. aureus ATCC 29213, 24 h; read-out: MIC (μg/mL) 24 h
[3] = test system: THP-1 cells; assay: Lactate dehydrogenase (LDH) cytotoxicity assay; type: cell-based, human; settings: Homo sapiens, THP-1 cells
[4] = test system: C. difficile ATCC 43255; settings: cited from earlier work
[5] = test system: C. difficile strains; settings: cited from earlier work
[6] = test system: Bacteroides fragilis HM-709; settings: cited from earlier work
[7] = test system: Bifidobacterium longum HM-846; settings: cited from earlier work
[8] = test system: Corynebacterium spp. HM-784; settings: cited from earlier work
[9] = test system: Fusobacterium nucleatum HM-992; settings: cited from earlier work
[10] = test system: Lactobacillus gasseri HM-644; settings: cited from earlier work
[11] = test system: Veillonella sp. HM-49; settings: cited from earlier work
[12] = test system: Eubacterium sp. HM-178; settings: cited from earlier work
[13] = C. difficile strains of Table 4

## FC(F)(F)c1ccc(Oc2ccc(-c3noc(-c4ccc5[nH]ccc5c4)n3)cc2)cc1 [Compound 1]
[1]; ATCC43255, 24 h, C. difficile ATCC 43255, 24 h, read-out: MIC (μg/mL) 24 h
  MIC: 2 µg/mL (≈ 4.75 µM)
[1]; ATCC43255, Table 1, strain ATCC 43255, read-out: MIC C. difficile
  MIC: 4 µg/mL (≈ 9.49 µM)
[2]
  MIC: 4 µg/mL (≈ 9.49 µM)
[3]; 24 h, read-out: LDH (IC50)
  IC50: 69 ± 6 µg/mL (≈ 164 µM)
[3]; read-out: toxicity IC50 (LDH assay)
  IC50: > 50 µg/mL
[4]; C. difficile ATCC43255
  MIC: 2 µg/mL (≈ 4.75 µM)
[4]; C. difficile ATCC 43255, earlier publication
  MIC: 4 µg/mL (≈ 9.49 µM)
[4]; strain ATCC43255
  MIC: 2 µg/mL (≈ 4.75 µM)
[5]; 101 C. difficile strains
  IMIC50 (101 strains): 4 µg/mL
  MIC90 (101 strains): 8 µg/mL (≈ 19 µM)
[5]; C. difficile 23828, resistant to FDX
  MIC: 4 µg/mL (≈ 9.49 µM)
[5]; C. difficile 24531, resistant to VAN
  MIC: 4 µg/mL (≈ 9.49 µM)
[5]; C. difficile 26675, resistant to MTZ
  MIC: 4 µg/mL (≈ 9.49 µM)
[5]; C. difficile BAA-1803
  MIC: 2 µg/mL (≈ 4.75 µM)
[5]; C. difficile BAA-1870
  MIC: 4 µg/mL (≈ 9.49 µM)
[5]; C. difficile NR49292
  MIC: 2 µg/mL (≈ 4.75 µM)
[5]; C. difficile NR49294
  MIC: 1 µg/mL (≈ 2.37 µM)
[5]; C. difficile NR49302
  MIC: 2 µg/mL (≈ 4.75 µM)
[5]; C. difficile NR49305
  MIC: 4 µg/mL (≈ 9.49 µM)
[5]; C. difficile NR49310
  MIC: 2 µg/mL (≈ 4.75 µM)
[5]; C. difficile NR49318
  MIC: 2 µg/mL (≈ 4.75 µM)
[5]; [13]
  MIC50: 4 µg/mL (≈ 9.49 µM)
  MIC90: 8 µg/mL (≈ 19 µM)
[5]; strain ATCC43598
  MIC: 1 µg/mL (≈ 2.37 µM)
[5]; strain BAA-1801
  MIC: 4 µg/mL (≈ 9.49 µM)
[5]; strain BAA-1803
  MIC: 2 µg/mL (≈ 4.75 µM)
[5]; strain BAA-1804
  MIC: 2 µg/mL (≈ 4.75 µM)
[5]; strain BAA-1812
  MIC: 2 µg/mL (≈ 4.75 µM)
[5]; strain BAA-1814
  MIC: 4 µg/mL (≈ 9.49 µM)
[5]; strain BAA-1870
  MIC: 4 µg/mL (≈ 9.49 µM)
[5]; strain HM-88
  MIC: 8 µg/mL (≈ 19 µM)
[5]; strain HM-89
  MIC: 8 µg/mL (≈ 19 µM)
[5]; strain HM-745
  MIC: 8 µg/mL (≈ 19 µM)
[5]; strain HM-746
  MIC: 4 µg/mL (≈ 9.49 µM)
[5]; strain HM-747
  MIC: 8 µg/mL (≈ 19 µM)
[5]; strain NR49292
  MIC: 2 µg/mL (≈ 4.75 µM)
[5]; strain NR49294
  MIC: 1 µg/mL (≈ 2.37 µM)
[5]; strain NR49302
  MIC: 2 µg/mL (≈ 4.75 µM)
[5]; strain NR49305
  MIC: 4 µg/mL (≈ 9.49 µM)
[5]; strain NR49310
  MIC: 2 µg/mL (≈ 4.75 µM)
[5]; strain NR49318
  MIC: 2 µg/mL (≈ 4.75 µM)
[5]; strain NR-13427
  MIC: 4 µg/mL (≈ 9.49 µM)
[5]; strain NR-13428
  MIC: 8 µg/mL (≈ 19 µM)
[5]; strain NR-13429
  MIC: 8 µg/mL (≈ 19 µM)
[5]; strain NR-13430
  MIC: 8 µg/mL (≈ 19 µM)
[5]; strain NR-13431
  MIC: 4 µg/mL (≈ 9.49 µM)
[5]; strain NR-13433
  MIC: 4 µg/mL (≈ 9.49 µM)
[5]; strain NR-13434
  MIC: 4 µg/mL (≈ 9.49 µM)
[5]; strain NR-13435
  MIC: 4 µg/mL (≈ 9.49 µM)
[5]; strain NR-13436
  MIC: 8 µg/mL (≈ 19 µM)
[5]; strain NR-13437
  MIC: 8 µg/mL (≈ 19 µM)
[5]; strain NR-13438
  MIC: 4 µg/mL (≈ 9.49 µM)
[5]; strain NR-13553
  MIC: 4 µg/mL (≈ 9.49 µM)
[5]; strain NR-32882
  MIC: 4 µg/mL (≈ 9.49 µM)
[5]; strain NR-32883
  MIC: 4 µg/mL (≈ 9.49 µM)
[5]; strain NR-32884
  MIC: 4 µg/mL (≈ 9.49 µM)
[5]; strain NR-32885
  MIC: 8 µg/mL (≈ 19 µM)
[5]; strain NR-32886
  MIC: 4 µg/mL (≈ 9.49 µM)
[5]; strain NR-32887
  MIC: 8 µg/mL (≈ 19 µM)
[5]; strain NR-32888
  MIC: 8 µg/mL (≈ 19 µM)
[5]; strain NR-32889
  MIC: 4 µg/mL (≈ 9.49 µM)
[5]; strain NR-32890
  MIC: 4 µg/mL (≈ 9.49 µM)
[5]; strain NR-32891
  MIC: 8 µg/mL (≈ 19 µM)
[5]; strain NR-32892
  MIC: 4 µg/mL (≈ 9.49 µM)
[5]; strain NR-32895
  MIC: 2 µg/mL (≈ 4.75 µM)
[5]; strain NR-32896
  MIC: 2 µg/mL (≈ 4.75 µM)
[5]; strain NR-32897
  MIC: 8 µg/mL (≈ 19 µM)
[5]; strain NR-32900
  MIC: 8 µg/mL (≈ 19 µM)
[5]; strain NR-32903
  MIC: 8 µg/mL (≈ 19 µM)
[5]; strain NR-32904
  MIC: 4 µg/mL (≈ 9.49 µM)
[5]; strain NR-49277
  MIC: 4 µg/mL (≈ 9.49 µM)
[5]; strain NR-49278
  MIC: 4 µg/mL (≈ 9.49 µM)
[5]; strain NR-49279
  MIC: 4 µg/mL (≈ 9.49 µM)
[5]; strain NR-49280
  MIC: 8 µg/mL (≈ 19 µM)
[5]; strain NR-49281
  MIC: 4 µg/mL (≈ 9.49 µM)
[5]; strain NR-49282
  MIC: 8 µg/mL (≈ 19 µM)
[5]; strain NR-49283
  MIC: 8 µg/mL (≈ 19 µM)
[5]; strain NR-49284
  MIC: 8 µg/mL (≈ 19 µM)
[5]; strain NR-49285
  MIC: 4 µg/mL (≈ 9.49 µM)
[5]; strain NR-49286
  MIC: 4 µg/mL (≈ 9.49 µM)
[5]; strain NR-49287
  MIC: 4 µg/mL (≈ 9.49 µM)
[5]; strain NR-49288
  MIC: 4 µg/mL (≈ 9.49 µM)
[5]; strain NR-49289
  MIC: 8 µg/mL (≈ 19 µM)
[5]; strain NR-49290
  MIC: 8 µg/mL (≈ 19 µM)
[5]; strain NR-49291
  MIC: 8 µg/mL (≈ 19 µM)
[5]; strain NR-49293
  MIC: 4 µg/mL (≈ 9.49 µM)
[5]; strain NR-49295
  MIC: 4 µg/mL (≈ 9.49 µM)
[5]; strain NR-49296
  MIC: 4 µg/mL (≈ 9.49 µM)
[5]; strain NR-49297
  MIC: 4 µg/mL (≈ 9.49 µM)
[5]; strain NR-49298
  MIC: 4 µg/mL (≈ 9.49 µM)
[5]; strain NR-49299
  MIC: 4 µg/mL (≈ 9.49 µM)
[5]; strain NR-49300
  MIC: 4 µg/mL (≈ 9.49 µM)
[5]; strain NR-49301
  MIC: 4 µg/mL (≈ 9.49 µM)
[5]; strain NR-49303
  MIC: 4 µg/mL (≈ 9.49 µM)
[5]; strain NR-49304
  MIC: 4 µg/mL (≈ 9.49 µM)
[5]; strain NR-49306
  MIC: 4 µg/mL (≈ 9.49 µM)
[5]; strain NR-49307
  MIC: 4 µg/mL (≈ 9.49 µM)
[5]; strain NR-49308
  MIC: 8 µg/mL (≈ 19 µM)
[5]; strain NR-49309
  MIC: 4 µg/mL (≈ 9.49 µM)
[5]; strain NR-49311
  MIC: 4 µg/mL (≈ 9.49 µM)
[5]; strain NR-49312
  MIC: 8 µg/mL (≈ 19 µM)
[5]; strain NR-49313
  MIC: 4 µg/mL (≈ 9.49 µM)
[5]; strain NR-49314
  MIC: 4 µg/mL (≈ 9.49 µM)
[5]; strain NR-49315
  MIC: 4 µg/mL (≈ 9.49 µM)
[5]; strain NR-49316
  MIC: 4 µg/mL (≈ 9.49 µM)
[5]; strain NR-49317
  MIC: 8 µg/mL (≈ 19 µM)
[5]; strain NR-49319
  MIC: 8 µg/mL (≈ 19 µM)
[5]; strain NR-49320
  MIC: 4 µg/mL (≈ 9.49 µM)
[5]; strain NR-49321
  MIC: 8 µg/mL (≈ 19 µM)
[5]; strain NR-49323
  MIC: 8 µg/mL (≈ 19 µM)
[5]; strain NR-49324
  MIC: 8 µg/mL (≈ 19 µM)
[5]; strain NR-49325
  MIC: 8 µg/mL (≈ 19 µM)
[5]; strain NR-49326
  MIC: 4 µg/mL (≈ 9.49 µM)
[5]; strain NR-49327
  MIC: 4 µg/mL (≈ 9.49 µM)
[5]; strain NR-49328
  MIC: 4 µg/mL (≈ 9.49 µM)
[5]; strain NR-49329
  MIC: 4 µg/mL (≈ 9.49 µM)
[5]; strain RMA23691
  MIC: 4 µg/mL (≈ 9.49 µM)
[5]; strain RMA23828
  MIC: 4 µg/mL (≈ 9.49 µM)
[5]; strain RMA24531
  MIC: 4 µg/mL (≈ 9.49 µM)
[5]; strain RMA24923
  MIC: 4 µg/mL (≈ 9.49 µM)
[5]; strain RMA26675
  MIC: 4 µg/mL (≈ 9.49 µM)
[5]; strain RMA27081
  MIC: 2 µg/mL (≈ 4.75 µM)
[5]; strain RMA27173
  MIC: 4 µg/mL (≈ 9.49 µM)
[6]
  MIC: 4 µg/mL (≈ 9.49 µM)
[7]
  MIC: 0.25 µg/mL (≈ 0.593 µM)
[8]
  MIC: 2 µg/mL (≈ 4.75 µM)
[9]
  MIC: 1 µg/mL (≈ 2.37 µM)
[10]
  MIC: >128 µg/mL
[11]
  MIC: >128 µg/mL
[12]
  MIC: 2 µg/mL (≈ 4.75 µM)
